Measured values reported in patent publication EP4755881A1 (Wuhan Createrna Science and Technology Co., Ltd., priority 2023, dated 2025).
Where two headings read alike, the source gives them in different places.

Assays:
LPAR1 receptor = target: T1, LPAR1 receptor (Homo sapiens, UniProt Q92633); assay: LPAR1 in vitro biological activity evaluation 2: HTRF cAMP kit (LANCE Ultra cAMP Kit) assay in CHO stable transfected cell line expressing the LPAR1 receptor; format: cell-based; settings: Table 2, read-out: LPAR1 inhibitory activity IC50
T1 construct: expressed in transfected cells
Procedure: The inhibitory effects of the compounds of the present disclosure on the LPAR1 receptor were determined using a Chinese hamster ovary (CHO) stable transfected cell line expressing the LPAR1 receptor, through the HTRF cAMP kit (LANCE® Ultra cAMP Kit).
The CHO cell line expressing the LPAR1 receptor was cultured in F-12 medium (Gibco, 117650054) containing 10% fetal bovine serum (FBS, Avantor, 76294-180) and 0.2 mg/mL hygromycin B (Solarbio, H8080-1g) at 37°C with 5% CO2. Cell passage, recovery, and cryopreservation were performed according to conventional methods. The stable transfected cell line was cultured to 80% confluence, digested with trypsin to collect cells, counted, and then seeded at 5 µL/well in a 384-well plate (500 cells/5 µL). The 1× Stimulation Buffer was prepared according to the instructions of the kit (LANCE® Ultra cAMP Kit). 1 µL of the test compound solution (diluted to 10× with 1× Stimulation Buffer) was added to the corresponding experimental wells, followed by centrifugation and incubation at 37°C for 10 minutes. […] 5 µL/well of Eu-cAMP (diluted with Detection buffer) was added to the corresponding experimental wells. 5 µL/well of ULight™-anti-cAMP antibody (diluted with Detection buffer) was added to the corresponding experimental wells, followed by centrifugation and incubation at room temperature for 1 hour. After the incubation was completed, the readings at 665 nm and 620 nm under 330 nm excitation were detected using the HTS high-throughput drug screening multifunctional microplate reader (BMG, PHERAstar FSX). The IC50 values were calculated by fitting nonlinear regression (dose response - variable slope) using GraphPad Prism software.

[1] = Pharmacokinetic study in rats (oral gavage and tail vein injection, plasma LC-MS/MS); format: in vivo; settings: rat, SD rats, 1 mg/kg; for Cmax: read-out: Cmax
Method in brief: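 Male SD rats (200–250 g) are dosed orally (fasted; 5% DMSO/5% ethanol/60% PEG400/30% saline) or by tail-vein injection (10% ethanol/20% water/70% PEG400). Plasma sampled up to 24 h is analysed by LC-MS/MS. Non-compartmental analysis yields Cmax, C0, Tmax, AUC and T1/2.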

T1 sequence (Q92633 whole entry): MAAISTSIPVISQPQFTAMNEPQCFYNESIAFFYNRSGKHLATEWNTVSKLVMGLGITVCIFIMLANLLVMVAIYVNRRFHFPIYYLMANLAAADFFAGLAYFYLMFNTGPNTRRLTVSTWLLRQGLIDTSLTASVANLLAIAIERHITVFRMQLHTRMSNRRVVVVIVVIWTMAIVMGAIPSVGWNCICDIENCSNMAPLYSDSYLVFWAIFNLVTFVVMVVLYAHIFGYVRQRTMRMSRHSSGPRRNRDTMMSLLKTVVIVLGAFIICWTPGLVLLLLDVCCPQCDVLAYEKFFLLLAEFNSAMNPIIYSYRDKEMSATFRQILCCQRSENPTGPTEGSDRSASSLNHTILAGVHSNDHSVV

SMILES	IC50 (LPAR1 receptor)	other results
CCC[C@@H](C)OC(=O)Nc1c(-c2ccc(C#CC3(CC(=O)O)CC4(CC4)C3)c(C)n2)nnn1C [compound 478]	2.1 nM	
CCC(F)(F)[C@@H](C)OC(=O)Nc1c(C)noc1-c1ccc(C#C[C@@H]2CC[C@H]2C(=O)O)c(C)n1 [compound 486]	34.1 nM	
CCC(F)(F)[C@@H](C)OC(=O)Nc1c(C)noc1-c1ccc(C#CC2(CC(=O)O)CC(OC)C2)c(C)n1 (stereo partly shown) [compound 488]	51.5 nM	
CCOC1CC(C#Cc2ccc(-c3nnn(C)c3NC(=O)O[C@H](C)C(F)(F)CC)nc2CC)(CC(=O)O)C1 (stereo partly shown) [compound 489]	14.1 nM	
CCc1nc(-c2noc(C)c2NC(=O)O[C@H](C)C(F)(F)CC)ccc1C#CC1(CC(=O)O)CC(OC)C1 (stereo partly shown) [compound 492]	8.6 nM	AUC(0-t) ([1]; Iv): 5000 to 10000 ng·h/mL; half-life ([1]; Iv): 3.92 h; Cmax ([1]; Iv): 800 to 5000 ng/mL; AUC(0-t) ([1]; Po): 5000 to 10000 ng·h/mL; half-life ([1]; Po): 3.75 h; Cmax ([1]; Po): 800 to 5000 ng/mL
CCC(F)(F)[C@@H](C)OC(=O)Nc1c(-c2ccc(C#CC3(CC(=O)O)CC(OC)C3)c(C(F)(F)F)n2)noc1C (stereo partly shown) [compound 493]	8.5 nM	
C[C@H](CC(C)(F)F)OC(=O)Nc1c(-c2ccc(C#CC3(CC(=O)O)CC4(CC4)C3)c(C(F)(F)F)n2)nnn1C [compound 498]	6 nM	
CCC(F)(F)[C@@H](C)OC(=O)Nc1c(-c2ccc(C#CC3(CC(=O)O)CC4(CC4)C3)c(C(F)(F)F)n2)nnn1C [compound 499]	11.5 nM	
CCC(F)(F)[C@@H](C)OC(=O)Nc1c(-c2ccc(C#CC3(CC(=O)O)CC4(CC4)C3)c(Cl)n2)nnn1C [compound 503]	8.5 nM	
CCC[C@@H](C)OC(=O)Nc1c(-c2ccc(C#CC3(P(=O)(O)O)CC4(CC4)C3)c(C)n2)nnn1C [compound 510]	32.1 nM	
CCC(F)(F)[C@@H](C)OC(=O)Nc1c(-c2ccc(C#Cc3cc(C(F)(F)F)ncc3C(=O)O)c(C)n2)nnn1C [compound 513]	26.5 nM	

The remaining molecules from weak to strong by IC50 (LPAR1 receptor), led by results:

IC50 (LPAR1 receptor)	SMILES	other results
52.3 nM	CCC(F)(F)[C@@H](C)OC(=O)Nc1c(C)noc1-c1ccc(C#C[C@@H]2CCC[C@H]2C(=O)O)c(C)n1 [compound 485]	
35.2 nM	CCC(F)(F)[C@@H](C)OC(=O)Nc1c(C)noc1-c1ccc(C#C[C@@H]2CC(F)(F)C[C@H]2C(=O)O)c(C)n1 [compound 487]	
27.1 nM	CCC(F)(F)[C@@H](C)OC(=O)Nc1c(-c2ccc(C#CC3(CC(=O)O)CC(OC)C3)c(F)n2)noc1C (stereo partly shown) [compound 491]	
8.6 nM	CCOC1CC(C#Cc2ccc(-c3nnn(C)c3NC(=O)O[C@H](C)C(F)(F)CC)nc2C(F)(F)F)(CC(=O)O)C1 (stereo partly shown) [compound 490]	
7.2 nM	C[C@H](CC(C)(F)F)OC(=O)Nc1c(-c2ccc(C#CC3(CC(=O)O)CC4(CC4)C3)c(Cl)n2)nnn1C [compound 502]	
6.4 nM	CCc1nc(-c2nnn(C)c2NC(=O)O[C@H](C)C(F)(F)CC)ccc1C#CC1(CC(=O)O)CC2(CC2)C1 [compound 504]	
4.5 nM	CCc1nc(-c2nnn(C)c2NC(=O)O[C@H](C)CC(C)(F)F)ccc1C#CC1(CC(=O)O)CC2(CC2)C1 [compound 500]	
4 nM	CCC[C@@H](C)OC(=O)Nc1c(-c2ccc(C#CC3(CS(=O)(=O)O)CC4(CC4)C3)c(C)n2)nnn1C [compound 508, (R)-(5-((2-methyl-6-(1-methyl-5-(((pentan-2-yloxy)carbonyl)amino)-1H-1,2,3-triazol-4-yl)pyridin-3-yl)ethynyl)spiro[2.3]hexan-5-yl)methanesulfonic acid]	
